Reference: paper PMC11677692, “Analysis of Thiodiphenol in Rat Urine as a Biomarker of Exposure to Temephos” (Journal of Xenobiotics, 2024)
“And” between values parts separate entries of the source, which are not always exact repeats. Equal values may be shown once. Read-outs that look alike come from different tables or passages of the source.

How the values were obtained:
[1] = Urinary excretion kinetics of temephos metabolites after a single oral dose of temephos; format: in vivo, adult male Wistar rats; details: for parent compound in urine: urine samples with and without enzyme hydrolysis, single oral dose 300 mg/kg; for parent compound in urine / Tmax / k el / half-life: 300 mg/kg; for Tmax / k el / half-life: male, Wistar, rat, po
Procedure: Animals were individually housed in acrylic metabolism cages for the collection of urine for 8:16 h cycles (inside and outside the cage) for their adaptation during 8 d before treatment. Animals were orally administered with a single dose of temephos (300 mg/kg) emulsified with saline solution (0.9% NaCl). Urine was collected at intervals of 0–8, 8–16, 16–24, 24–48, 60–72, 84–96, 108–120, 132–144, 156–168, 228–240, and 324–336 h. Urine samples were collected and immediately centrifuged at 1600× g for 5 min at 4 °C (Eppendorf 5804R, Hamburg, Germany) and stored at −20 °C until processed for analysis.
(§1) Temephos urinary metabolites were enzymatically deconjugated, according to Cruz-Hurtado et al., with some modifications. Briefly, 200 µL of urine and 2000 IU of β-glucuronidase/sulfatase were added to a 0.5 M sodium acetate buffer at pH 5 to reach a final volume of 1 mL. The mixture was incubated at 50 °C in a water bath for an hour. To determine the optimal concentration of deconjugated temephos metabolites in the enzymatic hydrolysis assay, the concentration of β-glucuronidase/sulfatase was assessed from 250 to 4000 IU/mL. The enzymatic reaction was stopped by adding 10 mL of methylene chloride and cooling at room temperature; the mixture was vortexed for 1 min and then centrifuged at 1600× g for 15 min at room temperature. The organic phase was collected, and another residue extraction was performed using 10 mL of diethyl ether. Both supernatants were pooled and dried using anhydrous sodium sulfate. The solvent evaporated under a nitrogen current. The extracts were stored at −20 °C until analysis by HPLC-DAD. Extracts were dissolved in 200 µL of acetonitrile immediately before analysis. Urinary levels of temephos metabolites were adjusted by creatinine, which was determined using a commercial kit from Randox (CR510, Randox Laboratories Ltd., Crumlin, UK).
Temephos and its metabolites were analyzed by injecting urinary extracts into a liquid chromatograph equipped with a quaternary pump, autosampler, degasser, and UV-Vis Diode-Array detector (Agilent 1200, Agilent Technologies, Palo Alto, CA, USA). A ZORBAX Eclipse XDB C-18 column (4.6 × 150 mm, 5 µm) was used (Agilent Technologies, Deerfield, IL, USA). The detector wavelength was set at 254 nm, the reference wavelength was 550 nm, and the mobile phase was modified from Verdín-Betancourt et al.; it consisted of methanol (A), acetonitrile (B), and water (C), with initial solvent conditions of 27% A, 8% B, and 65% C at a rate of 1 mL/min at 25 °C. After injecting the sample (with different volumes), a 2.5 min linear gradient change was applied to achieve 23.5% A, 12.5% B, and 64% C, which was maintained for 1 min, followed by a second 2.5 min linear gradient change to 18% A, 18% B, and 64% C. Afterwards, another 4 min linear gradient change was applied to reach 20% A, 30% B, and 50% C. This condition was maintained for 2 min. Then, a fourth gradient change was applied, achieving 70% A, 25% B, and 5% C. In the end, the initial conditions were re-established to 27% A, 8% B, and 65% C. The column was equilibrated for 2 min before the next injection. The identity of temephos and its metabolites were confirmed by their retention time (tret) and UV spectra of standards. The concentrations of temephos, TDP, TDP-SO, and BPS were determined using calibration graphs of each compound. The concentration of the non-identified metabolite (NIM) was estimated using the Tem-dox-SO calibration graph due to their similarity in the UV spectrum and tret.
The urinary elimination constant (KElim-U) to determine the half-life of elimination (t1/2 Elim-U) for TDP, BPS, and NIMs was estimated from the slope of the curves in the Rate of Excretion plots (log-linear Rate of excretion (ΔU/Δt) versus mid-point time). […]

[2] = Enzymatic hydrolysis (β-glucuronidase/sulfatase) of urine of temephos-treated rats, HPLC-DAD; format: in vitro ADME, rat; details: 50 °C, 1 h, vs non-hydrolyzed urine
Procedure: as §1, with “Both supernatants were pooled and dried using anhydrous sodium sulfate. The solvent evaporated under a nitrogen current. The extracts were stored at −20 °C until analysis by HPLC-DAD. Extracts were dissolved in 200 µL of acetonitrile immediately before analysis.” left out
Temephos and its metabolites were analyzed by injecting urinary extracts into a liquid chromatograph equipped with a quaternary pump, autosampler, degasser, and UV-Vis Diode-Array detector (Agilent 1200, Agilent Technologies, Palo Alto, CA, USA). […] The concentrations of temephos, TDP, TDP-SO, and BPS were determined using calibration graphs of each compound. […]

[3] = urine, male adult rats, single oral dose of temephos 300 mg/kg
[4] = urine, urine, male adult rats, single oral dose of temephos 300 mg/kg, read-out: KElim-U 2nd Phase (converted)
[5] = urine, urine, male adult rats, single oral dose of temephos 300 mg/kg, read-out: t1/2 Elim-U 2nd Phase (converted)
[6] = urine, rats, single oral dose of temephos 300 mg/kg

SMILES	parent compound in urine [1]	parent compound in urine ([1]; listed as temephos)	increase of level in urine extracts after enzyme hydrolysis [2]	Tmax [1, 3] [h]	k el ([1]; urine, urine, male adult rats, single oral dose of temephos 300 mg/kg, read-out: KElim-U 1st Phase (converted)) [s⁻¹]	k el [1, 4] [s⁻¹]	half-life ([1]; urine, urine, male adult rats, single oral dose of temephos 300 mg/kg, read-out: t1/2 Elim-U 1st Phase (converted)) [min]	half-life [1, 5] [min]	AUC0–∞ [1, 3]	Cmax-U [1, 3]	tmax-U [1, 3] [h]	Cmax fold higher than that of BPS [1, 6] [fold]	Cmax fold higher than that of NIMs [1, 6] [fold]	time detected in urine after dosing [1, 6]	half-life ([1]; urine, urine, rats, single oral dose of temephos 300 mg/kg, read-out: t1/2 Elim-U (monophasic decline, one-compartment model) (converted)) [min]	time after which detection in urine was difficult [1, 6] [h]
COP(=S)(OC)Oc1ccc(Sc2ccc(OP(=S)(OC)OC)cc2)cc1 [Temephos, temephos]	practically undetectable	only traces	–	–	–	–	–	–	–	–	–	–	–	–	–	–
Oc1ccc(Sc2ccc(O)cc2)cc1 [TDP, 4,4′-thiodiphenol]	–	–	more than 60 fold	9	6.93e-06	7.08e-07	1670	16300	297,540 ± 76,013 nmol-h/mg Creatinine	366 nmol/mg Creatinine and 366 ± 115 nmol/mg Creatinine	10 ± 4	8.9	4.2	up to 320 h	–	–
O=S(=O)(c1ccc(O)cc1)c1ccc(O)cc1 [BPS, 4,4′-sulfonyldiphenol]	–	–	about 2 fold	9 ± 6	–	1.09e-05	–	1060	2455 ± 974 nmol-h/mg Creatinine	41 ± 16 nmol/mg Creatinine	–	–	–	40 h	1060	48
